Source: US20050143472A1, “Novel treatment for pathologies associated with oxidative damage” (priority 2002, published 2005)
“Also recorded” adds a separate entry of the source. Like-named read-outs stand apart in the source and are kept apart here.

What was measured:
[1] = target: T1, mPAO (Mus musculus, UniProt Q8C0L6); test: Steady-state kinetic spectrophotometric assay of mPAO (H2O2 formation); format: biochemical, murine; details: for KS′ / kcat′: apparent value; for KS′: air-saturated buffer pH 7.6, [O2] 237 μM; for inhibitor of mPAO (oxidation of N^1-acetyl-Spm) / substrate for mPAO (oxidation by mPAO): in words; for kcat′: air-saturated 50 mM KH2PO4/KOH buffer pH 7.6, [O2] 237 μM; for kcat′/KS′: specificity constant, air-saturated buffer pH 7.6
T1 construct: the full length cDNA of mpao was released by Nde I and Hind III treatment, and ligated into Nde I and Hind III sites of pET29c; made in house; host or cells: E. coli BL21 GOLD (DE3), plasmid pET-MPAO (pET29c)
Method: In this example the methods used to examine mPAO steady state kinetics are described. Spectrophotometric assays were done at 30° C. in a potassium phosphate buffer (e.g., 50 mM KH2PO4/KOH buffer, pH 7.6 saturated in air or in pure oxygen), using a published procedure which provides a continuous monitor of the H2O2 produced (Holt et al., Anal. Biochem. 244:384-392 [1997]). These assays were done in 1 mL cuvette with 0.8 mL of solution containing varying amounts of substrate, 1 mM vanillic acid, 0.5 mM 4-aminopyrine, 4 units of horseradish peroxidase, and 0.1-0.2 μg of mPAO. The reactions were monitored at 498 nm with a UVIKON 840 spectrophotometer (KONTRON Instruments) for the formation of the quinoneimine dye (ε498=4,650 M^−1cm^−1 at pH 7.6), the condensation product of vanillic acid and oxidized 4-aminopyrine. The latter is produced from 4-aminopyrine by the action of horseradish peroxidase that has been oxidized by H2O2 (Holt et al., supra [1997]). The assays were done at 25° C. by varying the concentration of the amine substrate, while the oxygen concentration in the assay solution was constant at the air-saturating level of 237 μM. The data were fit, by nonlinear regression to steady-state kinetic equations (McIntire et al., Biochem. J. 228:325-335 [1985]), which provided the values, and standard deviations thereof, for kcat′, KS′ and kcat′/KS′ (=Q, the specificity constant). [formula]
The dissociation constants, KD, for these and other amines were estimated in the following manner. It was assumed that the competition was competitive, since in the presence of the inhibitors, at a saturating N^1-acetyl-Spm concentration, the rate of the reaction was equal to the value of the true kcat. It was also assumed that the mechanism is of the ping-pong type. Thus, the applicable steady-state equation is (Segal, Enzyme Kinetics, John Wiley & Sons, New York, pp. 606-625 [1975]): [formula]
On the left, kcat and KS are the steady-state parameters for N^1-acetyl-Spm (S), and I and KI (=KD), represent the inhibitor and its inhibition constant, respectively. KIO and KO are the inhibition constant and Michaelis constant for O2, respectively. The equation can be converted to the expression on the right side when: [formula]
The expressions for kcat′ and KS′ (at the fixed [O2]=[…]) are the same as those when the inhibitor is absent. Since the values of kcat′ and KS″ were predetermined, inhibition assays were carried out where [S]≈KS″, which, in the absence of I, would give a rate, ν≈0.5×kcat″. In these assay, for each inhibitor, [I] was adjusted so the apparent rate was somewhat less then 0.5 kcat′. In this situation, after substitution and rearrangement, Equation 1 reduces to: [formula]
Since [I] and kcat′ are known, and ν is the measured rate in the presence of the inhibitor, the value of KI′ can be estimated. It is assumed that these apparent KI′ are good approximations of the true KI (=KD) values. […] The estimated KI′ values provided in Table 1, are the averages of these four values. If the reactions of the polyamine substrates and O2 with mPAO obeys a ping-pong type mechanism, the apparent values, kcat′/KS′, are equal to the true kcat/KS values.

[2] = target: T1, mPAO; test: Oxygraph assay of O2 consumption, progress-curve analysis; format: biochemical, murine; details: progress curves before and after catalase addition
Method: Some assays (oxygraph assays) were carried out by directly monitoring O2 consumption in air-saturated buffer ([O2]=0.237 mM) or buffer saturated with pure O2 at 30° C. ([O2]=1.12 mM). The depletion of O2 was detected with a Yellow Springs Instruments, Inc. Model 53 Oxygen Monitor equipped with a Clark electrode. […] Following a published procedure (Goudar et al., Biochim. Biophys. Acta 1429:377-383 [1999]), the data were fitted to the integrated Mechaelis-Menton equation. The analyses were done using Maple VI (Windows 2000) software (Waterloo Maple, Inc.) running on a PC computer. […] Inhibition by the H2O2, formed as a product of polyamine oxidation by mPAO, was assessed by addition of 2 μL of a 30 mg/mL (30,000 units/mg) solution of catalase, after [O2] reached zero.
The catalase immediately converted each mole of H2O2 to 0.5 mol of O2 (since [O2]=1.12 mM for pure O2-saturated buffer, then [O2]=0.56 mM immediately after catalase addition). In the presence of catalase, O2 depletion should occur at 0.5× the rate as it does in the absence of catalase (unless H2O2 inhibition is operating). With catalase present, each molecule of O2 will be converted eventually to H2O (4-electron equivalents), rather than to H2O2 (2-electron equivalents).

[3] = apparent, inhibition of N^1-acetyl-Spm oxidation, average of four inhibitor concentrations, read-out: KI′ = KD

T1 sequence (Q8C0L6 whole entry E184K/L285S/R416L/R417S/Q419R/E451A/V490I/S491G/V497A): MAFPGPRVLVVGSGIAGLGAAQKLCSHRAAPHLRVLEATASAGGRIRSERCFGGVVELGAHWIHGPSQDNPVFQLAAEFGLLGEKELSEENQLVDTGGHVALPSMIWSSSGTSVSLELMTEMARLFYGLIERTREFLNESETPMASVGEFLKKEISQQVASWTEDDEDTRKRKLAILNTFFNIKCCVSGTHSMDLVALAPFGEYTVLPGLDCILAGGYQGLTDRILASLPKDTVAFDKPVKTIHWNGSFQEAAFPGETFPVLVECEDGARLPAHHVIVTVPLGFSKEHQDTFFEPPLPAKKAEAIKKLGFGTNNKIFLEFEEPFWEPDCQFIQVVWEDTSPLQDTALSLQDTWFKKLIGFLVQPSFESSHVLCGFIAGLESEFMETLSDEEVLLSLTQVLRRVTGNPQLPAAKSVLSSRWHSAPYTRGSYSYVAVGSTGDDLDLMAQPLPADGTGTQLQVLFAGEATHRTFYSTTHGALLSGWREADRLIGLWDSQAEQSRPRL

SMILES	KS′ [1] [µM]	Ki [1, 3] [µM]	inhibitor of mPAO (oxidation of N^1-acetyl-Spm) [1]	substrate for mPAO (oxidation by mPAO) [1]	kcat′ [1] [s⁻¹]	kcat′/KS′ [1]	Ki [1] [µM]	substrate for mPAO (oxidation by mPAO) ([1]; listed as N-(3-Aminopropyl)-1,10-diaminodecane)	substrate for mPAO (oxidation by mPAO) ([1]; listed as N-(3-aminopropyl)-1,10-diaminodecane)	inhibition of mPAO by product H2O2 [2]	KI′ = KD ([1]; apparent, inhibition of N^1-acetyl-Spm oxidation, average of four inhibitor concentrations)
NCCCNCCCCNCCCN [Spm, spermine]	716 ± 33	750	inhibitors	poor mPAO substrate; also recorded: poor substrates for mPAO							
NCCCCNCCCN [Spd, spermidine]	0	190	inhibitors	poor substrates for mPAO	0	0 M⁻¹ s⁻¹					
N=C(N)NCCCCCCCCCCNC(=N)N [synthalin, 1,10-bisguanidinodecane]	0		extremely potent inhibitor of mPAO		0	0 M⁻¹ s⁻¹	0.05				
NCCCCCCCCCCNCCCN [N-(3-aminopropyl) 1,10 decanediamine, N-(3-Aminopropyl)-1,10-diaminodecane]		35	good inhibitor of mPAO		0	0 M⁻¹ s⁻¹		not oxidized by mPAO	not to be a PAO substrate		
CCNCCCNCCCCNCCCNCC [N^1,N^12-diethyl-Spm, N^1,N^12-bis[ethyl]spermine]	150 ± 10			very good substrates	0.415 ± 0.012	(2.77 ± 0.13) × 10^3 M^−1sec^−1					
CC(=O)NCCCCNCCCN [N^8-acetyl-Spd]	0	70		not oxidized by mPAO	0	0 M⁻¹ s⁻¹					
NCCCCN [Put, putrescine]	0	1000	inhibitors		0	0 M⁻¹ s⁻¹					
OO [H2O2, hydrogen peroxide]										inhibition does not occur	
NCc1ccccc1 [benzylamine]	0		not		0	0 M⁻¹ s⁻¹					∞ (infinity)
CCNCCCNCCCNCCCNCC [N^1,N^11-diethyl-nor-Spm, N^1,N^11-bis[ethyl]norspermine]	157 ± 7			very good substrates	1.93 ± 0.03	(1.27 ± 0.03) × 10^4 M^−1sec^−1					
